Tests used:
MOLT-4 = experiment: NCI multiple cell line test (SRB); assay type: cell-based, human; details: MOLT-4 (Leukemia), 48 h
SCK cells = experiment: Growth response, MTT dye conversion assay; assay type: cell-based, murine; details: FIG. 8; 48 hours; compared with cisplatin
MCF-7 cells = experiment: Growth response, MTT dye conversion assay; assay type: cell-based, human; details: FIG. 7; 48 hours; compared with cisplatin
A549 cells = experiment: Growth response, MTT dye conversion assay; assay type: cell-based, human; details: low doses (FIG. 13 as printed)
M14 = experiment: NCI multiple cell line test (SRB); assay type: cell-based, human; details: M14 (Melanoma), 48 h
Description: (§1) The NCI tested MT477 60 cell line test, and reported the GI50, TGI, and LC50 values of MT477 for each cell line, reported herein at Table 3.
(§2) Methodology: The NCI conducted a test of the MT477 drug against about 60 human cell lines, with a minimum of five concentrations of MT477 at 10-fold dilutions, with no more than 5(10)^−5 molar of drug being used. A 48 hour continuous drug exposure was used, and a sulforhodamine B (SRB) protein assay was used to estimate cell viability and growth. The human tumor cell lines of the cancer screening panel were grown in RPMI 1640 medium containing 5% fetal bovine serum and 2 mM L-glutamine. Cells were inoculated into 96 well microtiter plates in 100 μL at plating densities ranging from 5,000 to 40,000 cells/well depending on the doubling time of individual cell lines. After cell inoculation, the microtiter plates are incubated at 37° C., 5% CO2, 95% air, and 100% relative humidity for 24 h prior to addition of experimental drugs.
(§3) After 24 h, two plates of each cell line were fixed in situ with TCA, to represent a measurement of the cell population for each cell line at the time of drug addition (Tz). MT477 was solubilized in dimethyl sulfoxide at 400-fold the desired final maximum test concentration and stored frozen prior to use. At the time of drug addition, an aliquot of frozen concentrate was thawed and diluted to twice the desired final maximum test concentration with complete medium containing 50 μg/ml gentamicin. Additional four, 10-fold or ½ log serial dilutions were made to provide a total of five drug concentrations plus control. Aliquots of 100 μl of these different drug dilutions were added to the appropriate microtiter wells already containing 100 μl of medium, resulting in the required final drug concentrations.
(§4) Following drug addition, the plates were incubated for an additional 48 h at 37° C., 5% CO2, 95% air, and 100% relative humidity. For adherent cells, the assay was terminated by the addition of cold TCA. Cells were fixed in situ by the gentle addition of 50 μl of cold 50% (w/v) TCA (final concentration, 10% TCA) and incubated for 60 minutes at 4° C. The supernatant was discarded, and the plates were washed five times with tap water and air dried. Sulforhodamine B (SRB) solution (100 μl) at 0.4% (w/v) in 1% acetic acid was added to each well, and plates were incubated for 10 minutes at room temperature. After staining, unbound dye was removed by washing five times with 1% acetic acid and the plates were air-dried. Bound stain was subsequently solubilized with 10 mM trizma base, and the absorbance was read on an automated plate reader at a wavelength of 515 nm. For suspension cells, the methodology was the same except that the assay was terminated by fixing settled cells at the bottom of the wells by gently adding 50 μl of 80% TCA (final concentration, 16% TCA). Using the seven absorbance measurements (time zero, (Tz), control growth, (C), and test growth in the presence of drug at the five concentration levels (Ti)), the percentage growth was calculated at each of the drug concentrations levels. Percentage growth inhibition was calculated as: [(Ti−Tz)/(C−Tz)]×100 for concentrations for which Ti>/=Tz [(Ti−Tz)/Tz]×100 for concentrations for which Ti<Tz.
(§5) Three dose response parameters were calculated for each experimental agent. Growth inhibition of 50% (GI50) was calculated from [(Ti−Tz)/(C−Tz)]×100=50, which is the drug concentration resulting in a 50% reduction in the net protein increase (as measured by SRB staining) in control cells during the drug incubation. The drug concentration resulting in total growth inhibition (TGI) was calculated from Ti=Tz. The LC50 (concentration of drug resulting in a 50% reduction in the measured protein at the end of the drug treatment as compared to that at the beginning) indicating a net loss of cells following treatment was calculated from [(Ti−Tz)/Tz]×100=−50. […]

HL-60 (TB) = experiment: NCI multiple cell line test (SRB); assay type: cell-based, human; details: HL-60 (TB) (Leukemia), 48 h
Description: as §1, §2, §3, §4, §5

NCI-H322M = experiment: NCI multiple cell line test (SRB); assay type: cell-based, human; details: NCI-H322M (Non-Small Cell Lung Cancer), 48 h
Description: as §1, §2, §3, §4, §5

HCT-116 = experiment: NCI multiple cell line test (SRB); assay type: cell-based, human; details: HCT-116 (Colon Cancer), 48 h
U251 = experiment: NCI multiple cell line test (SRB); assay type: cell-based, human; details: U251 (CNS Cancer), 48 h
OVCAR-3 = experiment: NCI multiple cell line test (SRB); assay type: cell-based, human; details: OVCAR-3 (Ovarian Cancer), 48 h
[1] = test system: normal human lung fibroblasts; experiment: Growth response, MTT dye conversion assay; assay type: cell-based; details: compared with cisplatin
UACC-257 = experiment: NCI multiple cell line test (SRB); assay type: cell-based, human; details: UACC-257 (Melanoma), 48 h
SW-620 = experiment: NCI multiple cell line test (SRB); assay type: cell-based, human; details: SW-620 (Colon Cancer), 48 h
[2] = Homo sapiens, read-out: −log10GI50 (converted)

## COC(=O)C1=C(C(=O)OC)SC2(S1)C(C(=O)OC)=C(C(=O)OC)SC1=C2c2cccc(OC)c2N(C(=O)CN2C(=O)CCC2=O)C1(C)C [MT477]
MOLT-4; [2]
  IC50: 1.02 µM
MOLT-4
  −log10LC50: 4.68 molar
  −log10TGI: 5.64 molar
SCK cells
  growth response: more effective than cisplatin
MCF-7 cells
  growth response: more effective than cisplatin
A549 cells
  growth response at low concentrations: effective even at very low doses, including micromolar dosages
M14
  −log10GI50: 602 molar
HL-60 (TB)
  −log10LC50: * (effect not reached at maximum dose of 0.05 millimolar)
  −log10TGI: 4.83 molar
HL-60 (TB); [2]
  IC50: 2.19 µM
NCI-H322M; [2]
  IC50: 6.46 µM
NCI-H322M
  −log10TGI: 4.87 molar
HCT-116
  −log10LC50: 5.48 molar
  −log10TGI: 5.75 molar
HCT-116; [2]
  IC50: 0.955 µM
U251; Homo sapiens, U-251, read-out: −log10GI50 (converted)
  IC50: 2 µM
U251
  −log10LC50: 4.72 molar
  −log10TGI: 5.14 molar
OVCAR-3; [2]
  IC50: 0.813 µM
OVCAR-3
  −log10LC50: 5.39 molar
  −log10TGI: 5.74 molar
[1]; FIG. 10, normal human lung cells at 24 and 48 hours
  growth response: more effective than cisplatin
[1]; FIGS. 1 and 2, 48 hours
  cytotoxicity profile (growth response): cytotoxicity profile that is similar to cisplatin
UACC-257; [2]
  IC50: 1.48 µM
UACC-257
  −log10LC50: 4.55 molar
  −log10TGI: 5.53 molar
SW-620; [2]
  IC50: 1.66 µM
SW-620
  −log10LC50: * (effect not reached at maximum dose of 0.05 millimolar)
  −log10TGI: * (effect not reached at maximum dose of 0.05 millimolar)

From patent US7652029B2, “Therapeutic compound and treatments” (priority 2004, dated 2010)
